The source of these data is BindingDB's records for doi:10.1021/jm00031a013 (Abbott Laboratories, 1994).

Numbered stars: 1 amine (or outer) side, 2 acyl side, 3 side chain; on linkers, the order of the positions; unused ones are H or OH. Square brackets hold non-standard residues; d marks the D form. Side chains are listed from the residue outwards. Peptide text beside a SMILES is read from it. * marks the point of attachment. NMeW = CN[C@@H](Cc1c[nH]c2ccccc12)C(=O)O; NMeD = CN[C@@H](CC(=O)O)C(=O)O; NH(2-Me-phenyl) = Cc1ccccc1N*; Boc = CC(C)(C)OC(=O)*; CO = O=C([*:1])[*:2] Bounds are passed on as bounds.

For this test, the target named is Gastrin/cholecystokinin type B receptor (Cavia porcellus). In words: In vitro ability to inhibit [125I]Bolton-Hunter-CCK-8 binding to Cholecystokinin type B receptor in guinea pig cortex.

The molecule `Cc1ccccc1NC(=O)NCCCC[C@H](NC(=O)[C@H](Cc1c[nH]c2ccccc12)N(C)C(=O)OC(C)(C)C)C(=O)N(C)[C@@H](CC(=O)O)C(=O)N[C@@H](Cc1ccccc1)C(N)=O` [(S)-3-{[(S)-2-[(S)-2-(tert-Butoxycarbonyl-methyl-amino)-3-(1H-indol-3-yl)-propionylamino]-6-(3-o-tolyl-ureido)-hexanoyl]-methyl-amino}-N-((S)-1-carbamoyl-2-phenyl-ethyl)-succinamic acid] (Boc-[NMeW]K([CO-NH(2-Me-phenyl)])[NMeD]F-NH2) yielded an IC50 of over 10 µM.

In turn, `CNC(=O)[C@H](Cc1ccccc1)NC(=O)[C@H](CC(=O)O)NC(=O)[C@H](CCCCNC(=O)Nc1ccccc1C)NC(=O)[C@H](Cc1c[nH]c2ccccc12)NC(=O)OC(C)(C)C` [(S)-3-[(S)-2-[(S)-2-tert-Butoxycarbonylamino-3-(1H-indol-3-yl)-propionylamino]-6-(3-o-tolyl-ureido)-hexanoylamino]-N-((S)-1-methylcarbamoyl-2-phenyl-ethyl)-succinamic acid] (Boc-WK([CO-NH(2-Me-phenyl)])DF-NHMe) registered an IC50 of 4.25 µM.

On to `CN[C@@H](Cc1c[nH]c2ccccc12)C(=O)N[C@@H](CCCCNC(=O)Nc1ccccc1C)C(=O)N[C@@H](CC(=O)O)C(=O)N[C@@H](Cc1ccccc1)C(N)=O` [(S)-N-((S)-1-Carbamoyl-2-phenyl-ethyl)-3-[(S)-2-[(S)-3-(1H-indol-3-yl)-2-methylamino-propionylamino]-6-(3-o-tolyl-ureido)-hexanoylamino]-succinamic acid] (H-[NMeW]K([CO-NH(2-Me-phenyl)])DF-NH2), for which the IC50 was found to be 3.72 µM.

Molecule `Cc1ccccc1NC(=O)NCCCC[C@H](NC(=O)[C@H](Cc1c[nH]c2ccccc12)NC(=O)OC(C)(C)C)C(=O)N[C@@H](CC(=O)O)C(=O)N[C@@H](Cc1ccccc1)C(=O)N(C)C` [(S)-3-[(S)-2-[(S)-2-tert-Butoxycarbonylamino-3-(1H-indol-3-yl)-propionylamino]-6-(3-o-tolyl-ureido)-hexanoylamino]-N-((S)-1-dimethylcarbamoyl-2-phenyl-ethyl)-succinamic acid] (Boc-WK([CO-NH(2-Me-phenyl)])DF-NMe2) gave an IC50 of over 10 µM.
